Each block holds one molecule with its values, some of them ahead of it.
Tests used:
[1] = tested on: Erk1/2 phosphorylation in Drosophila S2 cells; assay: Insulin-stimulated Erk1/2 phosphorylation in S2 cells after preincubation with chelator or silver (immunoblot); type: cell-based; details: then human insulin 25 μg/mL
Excerpt: The copper transporter Ctr1 was identified as one of approximately 300 genes that when knocked down in S2 insect cells reduced phosphorylation of Erk (see, e.g., Friedman, A. and Perrimon, N. (2006) Nature 444:230-234). To explore whether both Ctr11 and the associated Cu^+ transport function are important for Ras signaling to Erk1/2, Cu^+-specific chelation was used to impose copper deficiency on cultured fly S2 cells, S2 cells used for the no-treatment and insulin-only treatment conditions were left in basal medium (Schneider's medium with 10% fetal bovine serum) during the preincubation. S2 cells used for the other treatment conditions were preincubated for 1 hour with chelator or silver as follows: 10 μM tetrathiomolybdate (TTM) and 250 μM bathocupronine disulfonate (BCS) for copper chelation experiments, 10 μM ferrozine, and 250 μM bathophenanthroline disulfonate (BPS) for iron chelation, and 10 μM silver nitrate. Cells were stimulated with human insulin at a concentration of 25 μg/mL of medium. […] (FIG. 3A). […] (FIG. 3B). […] (FIG. 3C).

[2] = Cu2+ affinity of ligands used in the PAR competition study; type: physicochemical; details: 1:1 complex
Method: To obtain a precise binding affinity, a series of ligand competition studies using PAR were conducted. PAR is a chromogenic chelator forming colored complexes with metal ions. Cu^2+ binding affinity for Mek1 was estimated using competition experiments similar to those described in Zimmermann, M. et. al. (2009) Biochemistry 48:11640-11654, with the divalent metal ligand PAR [4-(2-pyridylazo)resorcinol]. The quantitative release of the 1:1 Cu^2+-/PAR complex on titration of apo-Mek1 was monitored spectrophotometrically at 500 nm (DU 600 spectrophotometer, Beckman Coulter, Brea, United States) in 20 mM Tris (pH 7.2)-100 mM NaCl.
Bidentate PAR forms a 1:1 complex with Cu^2+.
Control titrations under the same pH and ionic strength buffer conditions were performed with EDTA and bovine serum albumin (BSA) to validate the Cu^2+-PAR titration study. Both EDTA and BSA are spectrally silent, with known dissociation constants. EDTA also served to calibrate Cu^2+-PAR affinity relative to the reaction condition used for the experiments.

[3] = molecular target: T1, recombinant GST-tagged human Mek1 (Homo sapiens, UniProt Q02750); assay: Mek1 in vitro kinase assay (phosphorylation of kinase-dead Erk2); type: biochemical
T1 construct: made in house; host or cells: E. coli BL21(DE3)
Method: Mek1 requires copper for kinase activity in vitro (FIG. 8 and Turski, M. L. et al. (2012), supra). To determine the role copper plays in the stimulation of Mek1-dependent phosphorylation of Erk1/2, a series of in vitro experiments were carried out. For these experiments, purified human Mek1 protein was incubated with a kinase-dead isoform of hErk2 so that assessment of Erk2 phosphorylation mediated by Mek1 could be made in the absence of Erk2 autophosphorylation. Seger, R. et. al. (1991) Proc. Natl. Acad. Sci. U.S.A. 88:6142-6146.
Human Erk2 and human Mek1 were obtained from Addgene and cloned into pGEX4T3 and pGEX6P1 from GE Life Sciences, respectively. Recombinant GST-human Erk2 (hErk2) and GST-human Mek1 (hMek1) were purified from BL21(DE3) bacteria as previously described. […] The concentration was determined using the Bio-Rad DC protein assay (Bio-Rad, Hercules, United States).
(§1) Modified version of Mek1 and Erk2 in vitro kinase assay were performed as described previously. […] Reactions were quenched with 5× Laemmli buffer, and a third of the reaction mixture was analyzed by SDS-PAGE via subsequent Western blotting with phosphospecific antibodies. […] Reactions were quenched with 5× Laemmli buffer, and a third of the reaction mixture was analyzed by SDS-PAGE via Western blotting with phosphospecific antibodies.

[4] = tested on: Erk1/2 phosphorylation in mouse embryonic fibroblasts (MEFs); assay: Insulin-stimulated Erk1/2 phosphorylation in Ctr1+/+ and Ctr1−/− MEFs; type: cell-based
Method: Ctr1^+/+ and Ctr1^−/− mouse embryonic fibroblasts (MEFs) and insulin or fibroblast growth factor (FGF) stimulation experiments. To determine whether copper plays a role in the activation of Erk1/2, which is phosphorylated by Mek1, Ctr1^+/+ and Ctr1^−/− mouse embryonic fibroblasts (MEFs) were evaluated for insulin-stimulated ERK1/2 phosphorylation. Isolation and culture of Ctr1^+/+ and Ctr1^−/− cells were done as described in Lee, J. et al. (2002) J. Biol. Chem. 30:322-329. Insulin or fibroblast growth factor (FGF) stimulation experiments were done with plates measuring […], with one plate per time point. Cells were allowed to reach ˜95% confluence and then serum starved for 16 to 48 hours. Recombinant human insulin (Invitrogen, Carlsbad, United States) was added at a final concentration of 200 nM, and recombinant human basic FGF (Invitrogen, Carlsbad, United States) was added at a final concentration of 10 ng/ml, with the exception of the time zero plate. […]

[5] = tested on: BRaf^V600E-transformed MEFs; assay: Tumor growth in mice injected with BRaf^V600E-transformed MEFs; type: in vivo; details: 2 mg/day oral TM
Excerpt: FIGS. 12A-12C are graphs showing that copper is required for BRaf^V600E-driven tumorigenesis.
Copper is provided primarily through diet. […] Similar copper-reducing strategies may even hold promise as a way to preemptively reduce the incidence of melanoma in high-risk populations. In this regards, there are well-established approaches to regulate the level of copper in humans. Specifically, Wilson's Disease is characterized by a mutation in the copper-transporting gene ATP7B that results in elevated levels of copper in the body (see, e.g., Das, S. K. and Ray, K. (2006) Nat. Clin. Pract. Neurol. 2:482-493). This disease is treated by first lowering copper levels with copper chelators D-penicillamine, trientine or investigative drugs such as ammonium tetrathiomolybdate (TM). Copper levels are then maintained by a copper-restricted diet (e.g., avoidance of copper-rich foods such as shellfish, nuts, chocolate, liver and cooking in copperware) and either zinc acetate, to block copper absorption, or low dose copper chelators (see, e.g., Das, S. K. and Ray, K. (2006), supra). To evaluate if reducing dietary copper could negatively impact melanoma, mice injected with BRaf^V600E-transformed MEFs were either untreated as a control or treated with oral TM to chelate dietary copper.

recombinant Mek1 = molecular target: T2, recombinant Mek1 (Rattus norvegicus, UniProt Q01986); assay: Equilibrium dialysis copper binding stoichiometry of recombinant Mek1
T2 construct: GST (N, cleaved yes); made in house; host or cells: E. coli BL21-CodonPlus (DE3)-RIPL
Method: To investigate the nature of copper binding to Mek1, purified recombinant Mek1 was used for in vitro copper binding stoichiometry and binding affinity experiments. In vitro copper-binding experiments were carried out using the rat Mek1 coding sequence, which was PCR amplified using the pCMV-HAMek1 construct and cloned into the pGex6P-1 vector (GE Healthcare Life Sciences, Waukesha, United States). The resulting plasmid, pGex69-1Mek1, was transformed into BL21-CodonPlus (DE3)-RIPL cells from Stratagene. Recombinant, glutathione S-transferase (GST)-tagged Mek1 was purified by affinity chromatography using GSH agarose beads, followed by on-column Pre Scission protease cleavage of the GST tag. Further purification was achieved using MonoQ anion-exchange chromatography that served to remove the majority of the contaminating proteins, including cleaved GST tags that were not retained on the GSH column. […] Protein concentrations were determined by quantitative amino acid analysis with a Beckman 6300 analyzer (Beckman Coulter, Brea, United States) after hydrolysis in 5.7 N HCl at 110° C. in vacuo. Equilibrium dialysis experiments were conducted as described in Horng, Y. C. et al. (2006) J. Biol. Chem. 280:34113-34122. Recombinant Mek1 (2.5 to 10 μM in 20 mM Tris [pH 7.2]) was dialyzed, using a dialysis tube with 10-kDa molecular mass cutoff, against CuCl2 concentrations ranging from 0.25 to 15 μM in 20 mM Tris (pH 7.2)-100 mM NaCl overnight at 4° C. with slow stirring. Copper levels associated with Mek1 and the dialysate were quantified by inductively coupled plasma mass spectroscopy after digestion with 50% HNO3 at 65° C. In specific experiments, Cu^2+ was introduced as a Cu^2+-histidine complex (His complex) to preclude Cu^2+ hydrolysis and precipitation.
However, the inclusion of 0.1 mM EDTA reduced the Cu content to ˜1.5 molar equivalents. Dialysis of Mek1 against 2 μM Cu^2+-4 μM His complex, followed by a subsequent dialysis step in 0.1 mM EDTA, reduced the copper content to approximately 2 molar equivalents. Inclusion of […] when only Cu^2+ was present. […] In a separate series of equilibrium dialysis experiments in which the Cu^2+ content was varied from […] to 0.15 μM, the maximal copper content associated with Mek1 plateaued near ˜2.5 molar equivalent (FIG. 7B). […] Under these same conditions, Cu^2+ binding is observed with albumin, a known Cu^2+-binding protein, but not lysozyme or thyroglobulin.

recombinant GST-hErk2 = molecular target: T3, recombinant GST-hErk2 (Homo sapiens, UniProt P28482); assay: Erk2 in vitro kinase assay (phosphorylation of MBP); type: biochemical; details: increasing amounts of CuSO4; wild-type Erk2
T3 construct: made in house; host or cells: E. coli BL21(DE3)
Method: Human Erk2 and human Mek1 were obtained from Addgene and cloned into pGEX4T3 and pGEX6P1 from GE Life Sciences, respectively. Recombinant GST-human Erk2 (hErk2) and GST-human Mek1 (hMek1) were purified from BL21(DE3) bacteria as previously described. (see Heise, C. J. (2006) Methods 40:209-212; Levin-Salomon, V. et al. (2008) J. Biol. Chem. 283:34500-34510). Specifically, 500 mL of LB was inoculated with BL21(DE3) bacteria transformed with pGEX4T3-hErk2 or pGEX6P1-hMek1 and allowed to grow to an optical density of 0.6 at 600 nm (OD600). GST-hErk2 was induced by IPTG (0.4 mM) at 37° C. for 4 hours, while GST-hMek1 was induced by IPTG (1 mM) for 14 hour at 25° C. before collection by ultracentrifugation. […] and GST-hMek1 pellets were resuspended in 50 mL of 1×PBS-1% Triton X-100 plus a protease inhibitor tablet and sonicated for bacterial lysis. […] The concentration was determined using the Bio-Rad DC protein assay (Bio-Rad, Hercules, United States).
as §1

[6] = S2 cells preincubated 1 hour with 250 μM agent
[7] = S2 cells preincubated 1 hour with 10 μM agent

T2 sequence (Q01986 whole entry): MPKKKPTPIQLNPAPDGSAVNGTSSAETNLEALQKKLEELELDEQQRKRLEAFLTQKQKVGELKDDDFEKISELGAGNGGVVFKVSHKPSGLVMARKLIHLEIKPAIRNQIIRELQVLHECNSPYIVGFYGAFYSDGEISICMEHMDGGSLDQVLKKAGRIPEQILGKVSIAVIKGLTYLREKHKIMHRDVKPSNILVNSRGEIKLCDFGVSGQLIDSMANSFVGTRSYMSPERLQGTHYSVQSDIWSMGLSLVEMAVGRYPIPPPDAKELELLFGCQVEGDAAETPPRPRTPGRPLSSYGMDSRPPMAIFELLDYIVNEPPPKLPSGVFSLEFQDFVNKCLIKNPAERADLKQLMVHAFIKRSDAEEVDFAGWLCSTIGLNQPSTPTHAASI
T1 sequence (Q02750 whole entry): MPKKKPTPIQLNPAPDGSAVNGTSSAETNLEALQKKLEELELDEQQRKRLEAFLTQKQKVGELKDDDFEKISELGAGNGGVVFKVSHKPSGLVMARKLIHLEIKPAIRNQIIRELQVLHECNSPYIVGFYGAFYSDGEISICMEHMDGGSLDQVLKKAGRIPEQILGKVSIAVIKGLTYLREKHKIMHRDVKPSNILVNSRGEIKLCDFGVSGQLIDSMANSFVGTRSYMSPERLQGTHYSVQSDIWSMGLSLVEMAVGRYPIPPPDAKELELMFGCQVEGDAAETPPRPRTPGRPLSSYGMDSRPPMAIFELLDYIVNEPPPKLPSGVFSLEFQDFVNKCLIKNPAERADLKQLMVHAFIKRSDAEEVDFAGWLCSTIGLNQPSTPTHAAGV
T3 sequence (P28482 whole entry): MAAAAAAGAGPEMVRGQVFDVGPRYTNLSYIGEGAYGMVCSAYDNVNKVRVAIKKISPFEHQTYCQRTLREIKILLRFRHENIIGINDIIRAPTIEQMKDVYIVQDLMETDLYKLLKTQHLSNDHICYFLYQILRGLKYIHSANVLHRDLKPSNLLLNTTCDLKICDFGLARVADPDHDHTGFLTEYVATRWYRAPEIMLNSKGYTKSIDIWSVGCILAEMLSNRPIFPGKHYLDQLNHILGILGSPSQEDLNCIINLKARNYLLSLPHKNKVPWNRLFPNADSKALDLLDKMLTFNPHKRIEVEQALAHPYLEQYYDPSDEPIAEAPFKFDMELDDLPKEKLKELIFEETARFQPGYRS

Molecule: bathophenanthroline disulfonate [BPS]
- insulin-stimulated Erk1/2 phosphorylation [1, 6]: did not reduce insulin-stimulated Erk1/2 phosphorylation

- affinity of Cu2+-PAR complex (formation constant β) [2]: 3.2×10^17
Molecule: Oc1ccc(N=Nc2ccccn2)c(O)c1 [PAR, 4-(2-pyridylazo)resorcinol]

Molecule: [SH-].[SH-].[S]=[Mo]=[S] [TTM, tetrathiomolybdate, reference compound]
- Mek1 kinase activity in the presence of 2.5 μM CuSO4 ([3]; 50 μM TTM in the presence of CuSO4): blunted
- insulin-stimulated Erk1/2 phosphorylation [1, 7]: reduced the levels of insulin-stimulated Erk1/2 phosphorylation

Molecule: O=S(=O)([O-])c1ccc(-c2nnc(-c3ccccn3)nc2-c2ccc(S(=O)(=O)[O-])cc2)cc1.[Na+].[Na+] [ferrozine]
- insulin-stimulated Erk1/2 phosphorylation [1, 7]: did not reduce insulin-stimulated Erk1/2 phosphorylation

Molecule: Cc1cc(-c2ccc(S(=O)(=O)O)cc2)c2ccc3c(-c4ccc(S(=O)(=O)O)cc4)cc(C)nc3c2n1 [BCS, bathocupronine disulfonate]
- insulin-stimulated Erk1/2 phosphorylation [1, 6]: reduced the levels of insulin-stimulated Erk1/2 phosphorylation

Molecule: [Cu] [copper]
- insulin-stimulated Erk1/2 phosphorylation ([4]; Ctr1+/+ cells, copper added): No additional stimulation was observed
- insulin-stimulated Erk1/2 phosphorylation ([4]; Ctr1−/− MEFs preincubated with 25 μM copper for 1 hour prior to insulin stimulation): increased insulin-stimulated Erk1/2 phosphorylation, though not to the same levels as Ctr1^+/+ MEFs

Molecule: [NH4+].[NH4+].[SH-].[SH-].[S]=[Mo]=[S] [TM, ammonium tetrathiomolybdate]
- tumor size versus control tumors at termination of the experiment [5]: nearly five times smaller than the control tumors

Molecule: O=[N+]([O-])[O-].[Ag+] [Ag, silver nitrate]
- insulin-stimulated Erk1/2 phosphorylation [1, 7]: clearly diminished the levels of insulin-stimulated Erk1/2 phosphorylation

- Mek1 kinase activity, times greater ([3]; 2.5 μM CuSO4, 22° C., 30 minutes): ~20 times
Molecule: O=S(=O)([O-])[O-].[Cu+2] [CuSO4]

- bound copper content of Mek1 (recombinant Mek1; dialysis against 2 μM Cu2+-4 μM His complex, then dialysis in 0.1 mM EDTA): approximately 2 molar equivalents
- bound copper content of Mek1 (recombinant Mek1; dialysis against 2 μM Cu2+, as-isolated ratio ~0.5): ~2.5 molar equivalents
- bound copper content of Mek1 (recombinant Mek1; dialysis with inclusion of 0.1 mM EDTA): ~1.5 molar equivalents
- bound copper content of Mek1 (recombinant Mek1; only Cu2+ present (comparison with Zn(II) and Fe(II) inclusion)): 2.6
- maximal copper content associated with Mek1 (plateau) (recombinant Mek1; separate dialysis series, Cu2+ content varied from 0.11 to 0.15 μM): ~2.5 molar equivalent
- Erk2 phosphorylation of MBP (recombinant GST-hErk2): no effect
Molecule: [Cl][Cu][Cl] [Cu^2+, CuCl2]
